From the NIST ThermoML archive (doi:10.1021/je020220n)
Several values for one entry are separate records, joined by “and”; a condition that tells them apart may be missing. Equal entries are not always repeated. Numbers after ± are expanded uncertainties.

Settings: Crystal

[Br][Er]([Br])[Br] [erbium bromide (ErBr3)]
Settings | vapor or sublimation pressure
919 K | 2.82e-05 ± 8.5e-06 kPa
930 K | 4.17e-05 ± 1.3e-05 kPa and 7.08e-05 ± 2.1e-05 kPa
941 K | 7.08e-05 ± 2.1e-05 kPa
942 K | 8.91e-05 ± 2.7e-05 kPa and 0.0001122 ± 3.4e-05 kPa
948 K | 9.77e-05 ± 2.9e-05 kPa
952 K | 0.000123 ± 3.7e-05 kPa
954 K | 0.0001413 ± 4.2e-05 kPa
956 K | 0.000182 ± 5.5e-05 kPa
959 K | 0.0001413 ± 4.2e-05 kPa
961 K | 0.0001995 ± 6e-05 kPa
962 K | 0.0001778 ± 5.3e-05 kPa
964 K | 0.000195 ± 5.8e-05 kPa
966 K | 0.0001995 ± 6e-05 kPa
968 K | 0.000182 ± 5.5e-05 kPa
970 K | 0.0002692 ± 8.1e-05 kPa and 0.0002455 ± 7.4e-05 kPa
971 K | 0.0002951 ± 8.8e-05 kPa
973 K | 0.0002692 ± 8.1e-05 kPa
977 K | 0.0003467 ± 0.0001 kPa
979 K | 0.0003311 ± 9.9e-05 kPa and 0.0002818 ± 8.4e-05 kPa
982 K | 0.0003631 ± 0.00011 kPa
984 K | 0.0004898 ± 0.00015 kPa
988 K | 0.0004786 ± 0.00014 kPa
989 K | 0.0004677 ± 0.00014 kPa
990 K | 0.0004898 ± 0.00015 kPa
993 K | 0.0005623 ± 0.00017 kPa and 0.0004169 ± 0.00013 kPa
998 K | 0.000631 ± 0.00019 kPa and 0.0006166 ± 0.00018 kPa and 0.0007943 ± 0.00024 kPa
1004 K | 0.0009333 ± 0.00028 kPa
1007 K | 0.0008318 ± 0.00025 kPa
1008 K | 0.0006761 ± 0.0002 kPa and 0.0008511 ± 0.00026 kPa
1009 K | 0.000871 ± 0.00026 kPa
1010 K | 0.0009772 ± 0.00029 kPa
1015 K | 0.001349 ± 0.0004 kPa
1018 K | 0.001148 ± 0.00034 kPa and 0.001122 ± 0.00034 kPa
1020 K | 0.001 ± 0.0003 kPa
1025 K | 0.001698 ± 0.00051 kPa and 0.001445 ± 0.00043 kPa
1026 K | 0.001514 ± 0.00045 kPa
1028 K | 0.002089 ± 0.00063 kPa
1033 K | 0.002138 ± 0.00064 kPa and 0.001585 ± 0.00048 kPa
1036 K | 0.002042 ± 0.00061 kPa and 0.00257 ± 0.00077 kPa and 0.002089 ± 0.00063 kPa
1045 K | 0.002951 ± 0.00089 kPa and 0.002818 ± 0.00085 kPa
1051 K | 0.003631 ± 0.0011 kPa
1056 K | 0.00389 ± 0.0012 kPa
1058 K | 0.004365 ± 0.0013 kPa

[Cl][Er]([Cl])[Cl] [erbium trichloride]
Settings | vapor or sublimation pressure
880 K | 1.07e-05 ± 3.2e-06 kPa
892 K | 1.58e-05 ± 4.7e-06 kPa
897 K | 2.14e-05 ± 6.4e-06 kPa
903 K | 2.69e-05 ± 8.1e-06 kPa
907 K | 1.7e-05 ± 5.1e-06 kPa and 3.24e-05 ± 9.7e-06 kPa
913 K | 4.27e-05 ± 1.3e-05 kPa
916 K | 5.13e-05 ± 1.5e-05 kPa
920 K | 3.39e-05 ± 1e-05 kPa
921 K | 5.89e-05 ± 1.8e-05 kPa
923 K | 3.39e-05 ± 1e-05 kPa
925 K | 4.27e-05 ± 1.3e-05 kPa and 6.92e-05 ± 2.1e-05 kPa
929 K | 5.01e-05 ± 1.5e-05 kPa
932 K | 5.01e-05 ± 1.5e-05 kPa and 4.27e-05 ± 1.3e-05 kPa
933 K | 0.0001023 ± 3.1e-05 kPa
935 K | 5.01e-05 ± 1.5e-05 kPa and 0.0001072 ± 3.2e-05 kPa
936 K | 6.76e-05 ± 2e-05 kPa
943 K | 0.0001445 ± 4.3e-05 kPa [middle of 4 runs]
948 K | 0.0001349 ± 4.1e-05 kPa
949 K | 8.51e-05 ± 2.5e-05 kPa
950 K | 0.0001995 ± 6e-05 kPa
951 K | 0.0001995 ± 6e-05 kPa
952 K | 0.0001175 ± 3.5e-05 kPa
953 K | 0.0001349 ± 4.1e-05 kPa
954 K | 0.0001 ± 3e-05 kPa
958 K | 0.0001514 ± 4.5e-05 kPa and 0.0001862 ± 5.6e-05 kPa
959 K | 0.0002754 ± 8.3e-05 kPa
960 K | 0.0002754 ± 8.3e-05 kPa
963 K | 0.0001698 ± 5.1e-05 kPa [middle of 4 runs]
968 K | 0.0002188 ± 6.6e-05 kPa and 0.0002692 ± 8.1e-05 kPa and 0.0003715 ± 0.00011 kPa
970 K | 0.0002188 ± 6.6e-05 kPa and 0.0003802 ± 0.00011 kPa
972 K | 0.0002692 ± 8.1e-05 kPa
976 K | 0.0002344 ± 7e-05 kPa
977 K | 0.0003981 ± 0.00012 kPa and 0.0002455 ± 7.4e-05 kPa
978 K | 0.0003236 ± 9.7e-05 kPa
981 K | 0.0003715 ± 0.00011 kPa
983 K | 0.0004898 ± 0.00015 kPa
986 K | 0.0004365 ± 0.00013 kPa
988 K | 0.0003467 ± 0.0001 kPa
990 K | 0.000631 ± 0.00019 kPa and 0.0004074 ± 0.00012 kPa and 0.0005012 ± 0.00015 kPa
995 K | 0.0005754 ± 0.00017 kPa and 0.000631 ± 0.00019 kPa
997 K | 0.0008318 ± 0.00025 kPa
998 K | 0.0004786 ± 0.00014 kPa
999 K | 0.0006761 ± 0.0002 kPa
1003 K | 0.0006607 ± 0.0002 kPa and 0.0008511 ± 0.00026 kPa
1004 K | 0.0007762 ± 0.00023 kPa
1008 K | 0.0009333 ± 0.00028 kPa and 0.0006761 ± 0.0002 kPa
1012 K | 0.001071 ± 0.00032 kPa
1013 K | 0.001097 ± 0.00033 kPa
1014 K | 0.001412 ± 0.00042 kPa
1016 K | 0.001071 ± 0.00032 kPa
1017 K | 0.001288 ± 0.00039 kPa
1018 K | 0.0009333 ± 0.00028 kPa
1021 K | 0.001445 ± 0.00043 kPa
1022 K | 0.001514 ± 0.00045 kPa
1025 K | 0.00195 ± 0.00058 kPa and 0.001698 ± 0.00051 kPa
1028 K | 0.001318 ± 0.0004 kPa
1030 K | 0.001514 ± 0.00045 kPa and 0.00195 ± 0.00059 kPa
1031 K | 0.002138 ± 0.00064 kPa
1033 K | 0.002512 ± 0.00075 kPa
1034 K | 0.002512 ± 0.00075 kPa
1037 K | 0.002455 ± 0.00074 kPa
1040 K | 0.002818 ± 0.00085 kPa and 0.003162 ± 0.00095 kPa and 0.002344 ± 0.0007 kPa
